Laboratory results published in patent publication US8816085B2 (Takeda GmbH, priority 2009, dated 2014).

target: T1, PDE5A1 (human PDE5 from platelets) (Homo sapiens, UniProt O76074); assay: Inhibition of type 5 phosphodiesterase (PDE5) activity, modified SPA test; format: biochemical; conditions: PDE5-containing human platelet lysate, 0.5 μM cGMP, value classes, read-out: PDE5A1 inhibitory values [measured as −logIC50 (mol/l)] (converted)
T1 construct: from tissue; host or cells: platelets from fresh blood of human donors (10,000 g supernatant of sonified platelets)
Procedure, shortened: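 Enzyme source: human platelet lysate (10,000 g supernatant), with 1 μM motapizone and 10 nM PDE2 inhibitor present. SPA format in 20 mM Tris pH 7.4, 5 mM Mg2+, 0.5 μM cGMP with [3H]cGMP tracer; 5 min preincubation at 37 °C, 15 min reaction, stopped with IBMX-containing beads. IC50 by non-linear regression.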

IC50 | Compound
< 1 nM | Cc1[nH]c2c(-c3c(OCC4CC4)ccc4c3OCO4)ccnc2c1C(=O)N[C@H]1CC[C@@H](NC(=O)CO)CC1 [Example F04, 7-[5-(Cyclopropylmethoxy)-1,3-benzodioxol-4-yl]-N-[cis-4-(glycoloylamino)cyclohexyl]-2-methyl-1H-pyrrolo[3,2-b]pyridine-3-carboxamide]
< 1 nM | Cc1[nH]c2c(-c3c(OCC4CC4)ccc4c3OCO4)ccnc2c1C(=O)N[C@H]1CC[C@@H](NC(=O)[C@H](C)O)CC1 [Example F05, 7-[5-(Cyclopropylmethoxy)-1,3-benzodioxol-4-yl]-N-(cis-4-{[(2S)-2-hydroxypropanoyl]amino}cyclohexyl)-2-methyl-1H-pyrrolo[3,2-b]pyridine-3-carboxamide]
1 to 10 nM | Cc1[nH]c2c(-c3ccc(F)cc3OCC3CC3)ccnc2c1C(=O)NC1CCN(C(=O)[C@H](C)O)CC1 [Example F07, 7-[2-(Cyclopropylmethoxy)-4-fluorophenyl]-N-{1-[(2S)-2-hydroxypropanoyl]piperidin-4-yl}-2-methyl-1H-pyrrolo[3,2-b]pyridine-3-carboxamide]
1 to 10 nM | Cc1[nH]c2c(-c3ccc(F)cc3OCC3CC3)ccnc2c1C(=O)N[C@H]1CC[C@H](NC(=O)CO)CC1 [Example F08, 7-[2-(Cyclopropylmethoxy)-4-fluorophenyl]-N-{trans-4-[(hydroxyacetyl)amino]cyclohexyl}-2-methyl-1H-pyrrolo[3,2-b]pyridine-3-carboxamide]
< 1 nM | Cc1[nH]c2c(-c3ccc(F)cc3OCC3CC3)ccnc2c1C(=O)N[C@H]1CC[C@H](NC(=O)[C@H](C)O)CC1 [Example F09, 7-[2-(Cyclopropylmethoxy)-4-fluorophenyl]-N-(trans-4-{[(2S)-2-hydroxypropanoyl]amino}cyclohexyl)-2-methyl-1H-pyrrolo[3,2-b]pyridine-3-carboxamide]
1 to 10 nM | Cc1[nH]c2c(-c3ccc(F)cc3OCC3CC3)ccnc2c1C(=O)N[C@H]1CC[C@@H](NC(=O)CO)CC1 [Example F10, 7-[2-(Cyclopropylmethoxy)-4-fluorophenyl]-N-{cis-4-[(hydroxyacetyl)amino]cyclohexyl}-2-methyl-1H-pyrrolo[3,2-b]pyridine-3-carboxamide]
1 to 10 nM | Cc1[nH]c2c(-c3ccc(F)cc3OCC3CC3)ccnc2c1C(=O)N[C@H]1CC[C@@H](NC(=O)[C@H](C)O)CC1 [Example F11, 7-[2-(Cyclopropylmethoxy)-4-fluorophenyl]-N-(cis-4-{[(2S)-2-hydroxypropanoyl]amino}cyclohexyl)-2-methyl-1H-pyrrolo[3,2-b]pyridine-3-carboxamide]
1 to 10 nM | Cc1[nH]c2c(-c3cc(F)ccc3OCC3CC3)ccnc2c1C(=O)NC1CCN(C(=O)CO)CC1 [Example F12, 7-[2-(Cyclopropylmethoxy)-5-fluorophenyl]-N-[1-(hydroxyacetyl)piperidin-4-yl]-2-methyl-1H-pyrrolo[3,2-b]pyridine-3-carboxamide]
1 to 10 nM | Cc1[nH]c2c(-c3cc(F)ccc3OCC3CC3)ccnc2c1C(=O)NC1CCN(C(=O)[C@H](C)O)CC1 [Example F13, 7-[2-(Cyclopropylmethoxy)-5-fluorophenyl]-N-{1-[(2S)-2-hydroxypropanoyl]piperidin-4-yl}-2-methyl-1H-pyrrolo[3,2-b]pyridine-3-carboxamide]
< 1 nM | Cc1[nH]c2c(-c3cc(F)ccc3OCC3CC3)ccnc2c1C(=O)N[C@H]1CC[C@H](NC(=O)CO)CC1 [Example F14, 7-[2-(Cyclopropylmethoxy)-5-fluorophenyl]-N-{trans-4-[(hydroxyacetyl)amino]cyclohexyl}-2-methyl-1H-pyrrolo[3,2-b]pyridine-3-carboxamide]
< 1 nM | Cc1[nH]c2c(-c3cc(F)ccc3OCC3CC3)ccnc2c1C(=O)N[C@H]1CC[C@H](NC(=O)[C@H](C)O)CC1 [Example F15, 7-[2-(Cyclopropylmethoxy)-5-fluorophenyl]-N-(trans-4-{[(2S)-2-hydroxypropanoyl]amino}cyclohexyl)-2-methyl-1H-pyrrolo[3,2-b]pyridine-3-carboxamide]
1 to 10 nM | Cc1[nH]c2c(-c3cc(F)ccc3OCC3CC3)ccnc2c1C(=O)N[C@H]1CC[C@@H](NC(=O)CO)CC1 [Example F16, 7-[2-(Cyclopropylmethoxy)-5-fluorophenyl]-N-{cis-4-[(hydroxyacetyl)amino]cyclohexyl}-2-methyl-1H-pyrrolo[3,2-b]pyridine-3-carboxamide]
1 to 10 nM | Cc1[nH]c2c(-c3cc(F)ccc3OCC3CC3)ccnc2c1C(=O)N[C@H]1CC[C@@H](NC(=O)[C@H](C)O)CC1 [Example F17, 7-[2-(Cyclopropylmethoxy)-5-fluorophenyl]-N-(cis-4-{[abs.(2S)-2-hydroxypropanoyl]amino}cyclohexyl)-2-methyl-1H-pyrrolo[3,2-b]pyridine-3-carboxamide]
< 1 nM | COc1ccc(-c2ccnc3c(C(=O)NC4CCN(C(=O)CO)CC4)c(C)[nH]c23)c(OCC2CC2)c1 [Example F20, 7-[2-(Cyclopropylmethoxy)-4-methoxyphenyl]-N-[1-(hydroxyacetyl)piperidin-4-yl]-2-methyl-1H-pyrrolo[3,2-b]pyridine-3-carboxamide]
< 1 nM | COc1ccc(-c2ccnc3c(C(=O)NC4CCN(C(=O)[C@H](C)O)CC4)c(C)[nH]c23)c(OCC2CC2)c1 [Example F21, 7-[2-(Cyclopropylmethoxy)-4-methoxyphenyl]-N-{1-[(2S)-2-hydroxypropanoyl]piperidin-4-yl}-2-methyl-1H-pyrrolo[3,2-b]pyridine-3-carboxamide]
< 1 nM | COc1ccc(-c2ccnc3c(C(=O)N[C@H]4CC[C@H](NC(=O)CO)CC4)c(C)[nH]c23)c(OCC2CC2)c1 [Example F22, 7-[2-(Cyclopropylmethoxy)-4-methoxyphenyl]-N-{trans-4-[(hydroxyacetyl)amino]cyclohexyl}-2-methyl-1H-pyrrolo[3,2-b]pyridine-3-carboxamide]

The next lines start with the compound.

Compound | IC50
CCC(=O)N[C@H]1CC[C@@H](NC(=O)c2c(C)[nH]c3c(-c4cc(OC)c(F)cc4OCC4CC4)ccnc23)CC1 [Example E68, 7-[2-(Cyclopropylmethoxy)-4-fluoro-5-methoxyphenyl]-2-methyl-N-[cis-4-(propanoylamino)cyclohexyl]-1H-pyrrolo[3,2-b]pyridine-3-carboxamide] | < 1 nM
COCC(=O)N[C@H]1CC[C@@H](NC(=O)c2c(C)[nH]c3c(-c4cc(OC)c(F)cc4OCC4CC4)ccnc23)CC1 [Example E69, 7-[2-(Cyclopropylmethoxy)-4-fluoro-5-methoxyphenyl]-N-{cis-4-[(methoxyacetyl)amino]cyclohexyl}-2-methyl-1H-pyrrolo[3,2-b]pyridine-3-carboxamide] | < 1 nM
COc1cc(OCC2CC2)c(-c2ccnc3c(C(=O)NC4CCN(C(C)=O)CC4)c(C)[nH]c23)cc1F [Example E76, N-(1-Acetylpiperidin-4-yl)-7-[2-(cyclopropylmethoxy)-5-fluoro-4-methoxyphenyl]-2-methyl-1H-pyrrolo[3,2-b]pyridine-3-carboxamide] | < 1 nM
CCC(=O)N1CCC(NC(=O)c2c(C)[nH]c3c(-c4cc(F)c(OC)cc4OCC4CC4)ccnc23)CC1 [Example E77, 7-[2-(Cyclopropylmethoxy)-5-fluoro-4-methoxyphenyl]-2-methyl-N-(1-propionylpiperidin-4-yl)-1H-pyrrolo[3,2-b]pyridine-3-carboxamide] | < 1 nM
COCC(=O)N1CCC(NC(=O)c2c(C)[nH]c3c(-c4cc(F)c(OC)cc4OCC4CC4)ccnc23)CC1 [Example E78, 7-[2-(Cyclopropylmethoxy)-5-fluoro-4-methoxyphenyl]-N-[1-(methoxyacetyl)piperidin-4-yl]-2-methyl-1H-pyrrolo[3,2-b]pyridine-3-carboxamide] | < 1 nM
COc1cc(OCC2CC2)c(-c2ccnc3c(C(=O)N[C@H]4CC[C@H](NC(C)=O)CC4)c(C)[nH]c23)cc1F [Example E79, N-(trans-4-Acetamidocyclohexyl)-7-[2-(cyclopropylmethoxy)-5-fluoro-4-methoxyphenyl]-2-methyl-1H-pyrrolo[3,2-b]pyridine-3-carboxamide] | < 1 nM
CCC(=O)N[C@H]1CC[C@H](NC(=O)c2c(C)[nH]c3c(-c4cc(F)c(OC)cc4OCC4CC4)ccnc23)CC1 [Example E80, 7-[2-(Cyclopropylmethoxy)-5-fluoro-4-methoxyphenyl]-2-methyl-N-[trans-4-(propionylamino)cyclohexyl]-1H-pyrrolo[3,2-b]pyridine-3-carboxamide] | < 1 nM
COCC(=O)N[C@H]1CC[C@H](NC(=O)c2c(C)[nH]c3c(-c4cc(F)c(OC)cc4OCC4CC4)ccnc23)CC1 [Example E81, 7-[2-(Cyclopropylmethoxy)-5-fluoro-4-methoxyphenyl]-N-{trans-4-[(methoxyacetyl)amino]cyclohexyl}-2-methyl-1H-pyrrolo[3,2-b]pyridine-3-carboxamide] | < 1 nM
COc1cc(OCC2CC2)c(-c2ccnc3c(C(=O)N[C@H]4CC[C@@H](NC(C)=O)CC4)c(C)[nH]c23)cc1F [Example E82, N-(cis-4-Acetamidocyclohexyl)-7-[2-(cyclopropylmethoxy)-5-fluoro-4-methoxyphenyl]-2-methyl-1H-pyrrolo[3,2-b]pyridine-3-carboxamide] | < 1 nM
CCC(=O)N[C@H]1CC[C@@H](NC(=O)c2c(C)[nH]c3c(-c4cc(F)c(OC)cc4OCC4CC4)ccnc23)CC1 [Example E83, 7-[2-(Cyclopropylmethoxy)-5-fluoro-4-methoxyphenyl]-2-methyl-N-[cis-4-(propionylamino)cyclohexyl]-1H-pyrrolo[3,2-b]pyridine-3-carboxamide] | < 1 nM
COCC(=O)N[C@H]1CC[C@@H](NC(=O)c2c(C)[nH]c3c(-c4cc(F)c(OC)cc4OCC4CC4)ccnc23)CC1 [Example E84, 7-[2-(Cyclopropylmethoxy)-5-fluoro-4-methoxyphenyl]-N-{cis-4-[(methoxyacetyl)amino]cyclohexyl}-2-methyl-1H-pyrrolo[3,2-b]pyridine-3-carboxamide] | < 1 nM
